Results from US8642609B2, “Modulators of ATP-binding cassette transporters” (Vertex Pharmaceuticals Incorporated, priority 2003, dated 2014).

Target: T1, ΔF508-CFTR (Homo sapiens, UniProt P13569, DEL508-508)
T1 construct: expressed in transfected cells
Test: Membrane potential optical assay (FRET/VIPR), identification of correction compounds
Type: cell-based
Settings: for Emax: relative efficacy
Excerpt: I) Membrane Potential Optical Methods for Assaying ΔF508-CFTR Modulation Properties of Compounds
The optical membrane potential assay utilized voltage-sensitive FRET sensors described by Gonzalez and Tsien (See, Gonzalez, J. E. and R. Y. Tsien (1995) “Voltage sensing by fluorescence resonance energy transfer in single cells” Biophys J 69(4): 1272-80, and Gonzalez, J. E. and R. Y. Tsien (1997) “Improved indicators of cell membrane potential that use fluorescence resonance energy transfer” Chem Biol 4(4): 269-77) in combination with instrumentation for measuring fluorescence changes such as the Voltage/Ion Probe Reader (VIPR) (See, Gonzalez, J. E., K. Oades, et al. (1999) “Cell-based assays and instrumentation for screening ion-channel targets” Drug Discov Today 4(9): 431-439).
These voltage sensitive assays are based on the change in fluorescence resonant energy transfer (FRET) between the membrane-soluble, voltage-sensitive dye, DiSBAC2(3), and a fluorescent phospholipid, CC2-DMPE, which is attached to the outer leaflet of the plasma membrane and acts as a FRET donor. Changes in membrane potential (Vm) cause the negatively charged DiSBAC2(3) to redistribute across the plasma membrane and the amount of energy transfer from CC2-DMPE changes accordingly. The changes in fluorescence emission were monitored using VIPR™ II, which is an integrated liquid handler and fluorescent detector designed to conduct cell-based screens in 96- or 384-well microtiter plates.
Identification of Correction Compounds
To identify small molecules that correct the trafficking defect associated with ΔF508-CFTR; a single-addition HTS assay format was developed. The cells were incubated in serum-free medium for 16 hrs at 37° C. in the presence or absence (negative control) of test compound. As a positive control, cells plated in 384-well plates were incubated for 16 hrs at 27° C. to “temperature-correct” ΔF508-CFTR. The cells were subsequently rinsed 3× with Krebs Ringers solution and loaded with the voltage-sensitive dyes. To activate ΔF508-CFTR, 10 μM forskolin and the CFTR potentiator, genistein (20 μM), were added along with Cl^−-free medium to each well. The addition of Cl^−-free medium promoted Cl^− efflux in response to ΔF508-CFTR activation and the resulting membrane depolarization was optically monitored using the FRET-based voltage-sensor dyes.
NIH3T3 mouse fibroblasts stably expressing ΔF508-CFTR are used for optical measurements of membrane potential. The cells are maintained at 37° C. in 5% CO2 and 90% humidity in Dulbecco's modified Eagle's medium supplemented with 2 mM glutamine, 10% fetal bovine serum, 1×NEAA, β-ME, 1× pen/strep, and 25 mM HEPES in 175 cm^2 culture flasks. For all optical assays, the cells were seeded at 30,000/well in 384-well matrigel-coated plates and cultured for 2 hrs at 37° C. before culturing at 27° C. for 24 hrs. for the potentiator assay. For the correction assays, the cells are cultured at 27° C. or 37° C. with and without compounds for 16-24 hours B) Electrophysiological Assays for assaying ΔF508-CFTR modulation properties of compounds

T1 sequence (P13569 with tags, fused parts or gaps DEL508-508): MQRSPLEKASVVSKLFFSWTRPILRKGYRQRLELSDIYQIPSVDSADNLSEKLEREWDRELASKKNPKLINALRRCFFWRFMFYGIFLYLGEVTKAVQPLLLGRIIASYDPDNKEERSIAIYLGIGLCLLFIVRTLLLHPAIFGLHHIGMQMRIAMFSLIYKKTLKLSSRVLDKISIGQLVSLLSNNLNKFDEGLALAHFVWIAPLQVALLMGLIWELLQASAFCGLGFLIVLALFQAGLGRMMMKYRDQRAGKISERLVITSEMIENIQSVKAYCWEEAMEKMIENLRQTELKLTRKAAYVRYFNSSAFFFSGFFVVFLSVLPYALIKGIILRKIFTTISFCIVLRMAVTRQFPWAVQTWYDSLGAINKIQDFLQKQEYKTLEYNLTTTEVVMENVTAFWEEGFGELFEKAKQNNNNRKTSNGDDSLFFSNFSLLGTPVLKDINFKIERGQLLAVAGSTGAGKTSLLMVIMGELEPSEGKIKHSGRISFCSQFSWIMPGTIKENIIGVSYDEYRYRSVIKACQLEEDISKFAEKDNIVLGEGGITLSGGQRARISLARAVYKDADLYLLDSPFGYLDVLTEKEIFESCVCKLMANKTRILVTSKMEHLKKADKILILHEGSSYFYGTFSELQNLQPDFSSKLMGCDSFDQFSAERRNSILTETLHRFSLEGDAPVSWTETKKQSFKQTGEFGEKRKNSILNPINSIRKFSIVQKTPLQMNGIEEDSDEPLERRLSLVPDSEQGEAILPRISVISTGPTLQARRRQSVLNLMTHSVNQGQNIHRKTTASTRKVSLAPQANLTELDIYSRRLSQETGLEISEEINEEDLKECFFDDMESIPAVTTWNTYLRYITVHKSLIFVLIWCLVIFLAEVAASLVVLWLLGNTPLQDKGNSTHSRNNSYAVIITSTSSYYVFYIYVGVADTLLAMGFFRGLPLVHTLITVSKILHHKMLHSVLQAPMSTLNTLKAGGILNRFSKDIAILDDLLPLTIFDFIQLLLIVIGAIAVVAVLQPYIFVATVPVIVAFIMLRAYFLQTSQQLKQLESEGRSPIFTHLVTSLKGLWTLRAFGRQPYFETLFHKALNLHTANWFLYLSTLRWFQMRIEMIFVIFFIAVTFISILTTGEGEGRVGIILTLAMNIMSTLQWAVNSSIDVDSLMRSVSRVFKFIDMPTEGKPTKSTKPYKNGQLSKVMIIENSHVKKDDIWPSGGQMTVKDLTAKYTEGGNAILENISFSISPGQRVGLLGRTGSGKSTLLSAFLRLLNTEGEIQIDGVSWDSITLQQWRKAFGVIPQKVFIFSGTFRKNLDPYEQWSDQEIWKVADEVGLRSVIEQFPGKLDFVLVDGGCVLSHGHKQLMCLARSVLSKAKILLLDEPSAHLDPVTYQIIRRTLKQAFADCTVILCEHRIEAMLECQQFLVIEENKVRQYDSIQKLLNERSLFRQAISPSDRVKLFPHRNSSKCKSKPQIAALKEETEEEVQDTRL

EC50 | Emax | SMILES
25 to 60 µM | 25 to 100% | COc1ccc(S(=O)(=O)N2CCN(C(C)c3nc(N4CC[C@@H](NC(C)=O)C4)c4ccccc4n3)CC2)cc1 (some centres unmarked) [compound 394]
25 to 60 µM | < 25% | CC(NCCN(C)S(=O)(=O)c1ccc(Br)cc1)c1nc2ccccc2c(=O)n1C (centres unmarked) [compound 213]
25 to 60 µM | 25 to 100% | COc1ccc(S(=O)(=O)N2CCN(C(C)c3nc4ccc(C(N)=O)cc4c(=O)n3C)CC2)cc1 (centres unmarked) [compound 143]
25 to 60 µM | < 25% | CC(c1nc2ccccc2c(=O)n1C)N(C)CCNS(=O)(=O)c1ccc(Cl)cc1 (centres unmarked) [compound 238]
10 to 25 µM | < 25% | COc1ccc(S(=O)(=O)N2CCN(C(C)c3nc4cccc(Cl)c4c(=O)n3C)CC2)cc1 (centres unmarked) [compound 106]
25 to 60 µM | 25 to 100% | CC(c1nc2ccccc2c(=O)n1C)N1CCN(S(=O)(=O)c2ccccc2F)CC1 (centres unmarked) [compound 253]
25 to 60 µM | 25 to 100% | COc1ccc(S(=O)(=O)N2CCN(C(C)c3ncc(CO)c(N4CCCCC4)n3)CC2)cc1 (centres unmarked) [compound 359]
25 to 60 µM | 25 to 100% | COc1ccc(S(=O)(=O)N2CCN(C(C)c3nc4ccc(-c5nnn[nH]5)cc4c(=O)n3C)CC2)cc1 (centres unmarked) [compound 144]
25 to 60 µM | < 25% | Cc1ccc(S(=O)(=O)N2CCN(C(C)c3nc4ccc(Cl)cc4c(=O)n3C)CC2)cc1 (centres unmarked) [compound 41]
< 10 µM | > 100% | COc1ccc(S(=O)(=O)N2CCN(C(C)c3nc(N4CCSCC4)c4ccccc4n3)CC2)cc1 (centres unmarked) [compound 321]
25 to 60 µM | < 25% | CC(c1nc2ccccc2c(=O)n1C)N1CCN(S(=O)(=O)Cc2ccccc2)CC1 (centres unmarked) [compound 278]
25 to 60 µM | 25 to 100% | CCn1c(C(C)N2CCN(S(=O)(=O)c3ccc(C)cc3)CC2)nc2ccc(Cl)cc2c1=O (centres unmarked) [compound 36]
< 10 µM | > 100% | CCCC(c1nc2ccccc2c(=O)n1CC)N1CCN(S(=O)(=O)c2ccc(OC)cc2)CC1 (centres unmarked) [compound 341]
< 10 µM | 25 to 100% | CC(c1nc2ccccc2c(=O)n1C)N1CCN(S(=O)(=O)c2ccc(C(F)(F)F)cc2)CC1 (centres unmarked) [compound 70]
< 10 µM | > 100% | C[C@@H](c1nc(N2CCCCC2)c2ccccc2n1)N1CCN(S(=O)(=O)c2ccc(Cl)cc2)CC1 [compound 380]
25 to 60 µM | < 25% | CC(NCCCN)c1nc2ccccc2c(=O)n1C (centres unmarked) [compound 185]
< 10 µM | > 100% | COc1ccc(S(=O)(=O)N2CCN(Cc3nc(OC4CCCC4)c4ccccc4n3)CC2)cc1 [compound 386]
10 to 25 µM | 25 to 100% | COc1ccc(S(=O)(=O)N2CCN(C(C)c3nc4ccc(C#N)cc4c(=O)n3C)CC2)cc1 (centres unmarked) [compound 124]
< 10 µM | 25 to 100% | COc1ccc(S(=O)(=O)N2CCN(C(C)c3nc(OC4CCCCC4)c4cc(F)ccc4n3)CC2)cc1 (centres unmarked) [compound 374]
25 to 60 µM | < 25% | CC(c1nc2ccccc2c(=O)n1C)N1CCN(S(=O)(=O)c2ccc(Oc3ccccc3)nc2)CC1 (centres unmarked) [compound 267]
25 to 60 µM | 25 to 100% | COc1ccc(S(=O)(=O)N2CCN(C(C)c3nc4ccc(F)cc4c(=O)[nH]3)CC2)cc1 (centres unmarked) [compound 377]
25 to 60 µM | 25 to 100% | CCCn1c(C(C)N2CCN(C(=O)c3ccc4ccccc4c3)CC2)nc2ccccc2c1=O (centres unmarked) [compound 30]
< 10 µM | 25 to 100% | CC(c1nc2ccc(Cl)cc2c(=O)n1C)N1CCN(c2ccc(Cl)cc2)CC1 (centres unmarked) [compound 44]
< 10 µM | > 100% | CCOc1nc(C(C)N2CCN(S(=O)(=O)c3ccc(Br)cc3)CC2)nc2ccccc12 (centres unmarked) [compound 228]
< 10 µM | 25 to 100% | CC(c1nc2ccccc2c(=O)n1C)N1CCN(S(=O)(=O)c2ccc(SC(F)(F)F)cc2)CC1 (centres unmarked) [compound 352]
< 10 µM | > 100% | COc1ccc(S(=O)(=O)N2CCN(C(C)c3nc(OC(C)(C)C)c4ccccc4n3)CC2)cc1 (centres unmarked) [compound 311]

EC50 | Emax | SMILES
25 to 60 µM | < 25% | CC(NCCN)c1nc2ccccc2c(=O)n1C (centres unmarked) [compound 181]
< 10 µM | > 100% | COc1ccc(S(=O)(=O)N2CCN(C(C)c3nc(N4CC=CCC4)c4ccccc4n3)CC2)cc1 (centres unmarked) [compound 392]
25 to 60 µM | < 25% | COc1ccc(S(=O)(=O)N2CC3CC2CN3C(C)c2nc3ccccc3c(=O)n2C)cc1 (centres unmarked) [compound 175]
25 to 60 µM | < 25% | CC(c1nc2ccccc2c(=O)n1C)N(C[C@@H]1CCCCN1S(=O)(=O)c1ccc(Br)cc1)S(=O)(=O)c1ccc(Br)cc1 (some centres unmarked) [compound 204]
< 10 µM | > 100% | CCCC(c1nc(N2CCCCC2)c2ccccc2n1)N1CCN(S(=O)(=O)c2ccc(OC)cc2)CC1 (centres unmarked) [compound 339]
25 to 60 µM | 25 to 100% | CC(c1nc(N2CCOCC2)c2ccccc2n1)N1CCN(S(=O)(=O)c2ccc(Cl)cc2)CC1 (centres unmarked) [compound 236]
10 to 25 µM | > 100% | CCCn1c(C(C)N2CCN(S(=O)(=O)c3ccc(C)cc3)CC2)nc2ccccc2c1=O (centres unmarked) [compound 29]
25 to 60 µM | < 25% | CC(c1nc2ccccc2c(=O)n1C)N1CCC(NS(=O)(=O)c2ccc(Br)cc2)C1 (centres unmarked) [compound 163]
10 to 25 µM | < 25% | Cc1ccc(S(=O)(=O)N2CCN(C(C)c3nc4ccccc4c(=O)[nH]3)CC2)cc1 (centres unmarked) [compound 129]
25 to 60 µM | < 25% | CCCCC(=O)N1CCN(C(C)c2nc3ccc(Cl)cc3c(=O)n2C)CC1 (centres unmarked) [compound 16]
25 to 60 µM | < 25% | CC(c1nc2ccccc2c(=O)n1C)N1CCN(S(=O)(=O)c2ccc(C(=O)O)cc2)CC1 (centres unmarked) [compound 240]
25 to 60 µM | < 25% | CC(NCCN(C)S(=O)(=O)c1ccc(Cl)cc1)c1nc2ccccc2c(=O)n1C (centres unmarked) [compound 212]
< 10 µM | > 100% | CC(c1nc(N2CCCCC2)c2ccccc2n1)N1CCN(S(=O)(=O)c2ccc(Cl)cc2)CC1 (centres unmarked) [compound 237]
25 to 60 µM | 25 to 100% | CC(c1nc2ccccc2c(=O)n1C)N1CCN(S(=O)(=O)c2ccccc2Cl)CC1 (centres unmarked) [compound 229]
25 to 60 µM | < 25% | COc1ccc(S(=O)(=O)N(C[C@@H]2CCCCN2S(=O)(=O)c2ccc(OC)cc2)C(C)c2nc3ccccc3c(=O)n2C)cc1 (some centres unmarked) [compound 203]
10 to 25 µM | 25 to 100% | CC(c1nc2ccc(Cl)cc2c(=O)n1C)N1CCN(S(=O)(=O)c2ccccc2)CC1 (centres unmarked) [compound 71]
10 to 25 µM | 25 to 100% | COCCn1c(C(C)N2CCN(S(=O)(=O)c3ccc(OC)cc3)CC2)nc2ccccc2c1=O (centres unmarked) [compound 4]
25 to 60 µM | 25 to 100% | CC(c1nc2ccc(Cl)cc2c(=O)n1C)N1CCN(C(=O)c2ccccc2Cl)CC1 (centres unmarked) [compound 39]
25 to 60 µM | < 25% | COc1ccc(S(=O)(=O)N2CCN(C(C)c3ncc(C(=O)O)c(N4CCCCC4)n3)CC2)cc1 (centres unmarked) [compound 355]
25 to 60 µM | 25 to 100% | CC(c1nc2ccccc2c(=O)n1C)N1CC2CC1CN2S(=O)(=O)c1ccc(Cl)cc1 (centres unmarked) [compound 176]
25 to 60 µM | 25 to 100% | CNc1nc(C(C)N2CCN(S(=O)(=O)c3ccc(OC)cc3)CC2)nc2ccccc12 (centres unmarked) [compound 192]
25 to 60 µM | 25 to 100% | CNc1nc(C(C)N2CCN(S(=O)(=O)c3ccc(Cl)cc3)CC2)nc2ccccc12 (centres unmarked) [compound 232]
25 to 60 µM | 25 to 100% | COc1ccc(S(=O)(=O)N2CCN(C(C)c3nc(OC)c4ccccc4n3)CC2)cc1 (centres unmarked) [compound 187]
< 10 µM | > 100% | CCCn1c(CN2CCN(S(=O)(=O)c3ccc(Br)cc3)CC2)nc2ccccc2c1=O [compound 152]
10 to 25 µM | 25 to 100% | COc1ccc(S(=O)(=O)N2CCN(C(C)c3nc4ccc(S(C)(=O)=O)cc4c(=O)n3C)CC2)cc1 (centres unmarked) [compound 140]

SMILES | EC50 | Emax
CC(c1nc2ccccc2c(=O)n1C)N1CC2CC1CN2 (centres unmarked) [compound 186] | 25 to 60 µM | < 25%
